Measured values published in ChEMBL document CHEMBL1201862, “PubChem BioAssay data set” (2004).
The source made the active and inactive calls.

How the values were obtained:
[1] = molecular target: T1, Heat shock factor protein 1 (Mus musculus, UniProt P38532); experiment: enhancement of HSF1-driven luciferase signal – cell-based, NIH3T3, luminescence, dose retest, confirmation (AID 435004); format: functional;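 further: stress induced by proteasome inhibitor MG132 added 30 min after compound; luciferase reporter driven by HSF1 response element in NIH3T3 cells; actives raise luminescence as potentiators of the MG132 stress response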
T1 sequence (P38532 whole entry): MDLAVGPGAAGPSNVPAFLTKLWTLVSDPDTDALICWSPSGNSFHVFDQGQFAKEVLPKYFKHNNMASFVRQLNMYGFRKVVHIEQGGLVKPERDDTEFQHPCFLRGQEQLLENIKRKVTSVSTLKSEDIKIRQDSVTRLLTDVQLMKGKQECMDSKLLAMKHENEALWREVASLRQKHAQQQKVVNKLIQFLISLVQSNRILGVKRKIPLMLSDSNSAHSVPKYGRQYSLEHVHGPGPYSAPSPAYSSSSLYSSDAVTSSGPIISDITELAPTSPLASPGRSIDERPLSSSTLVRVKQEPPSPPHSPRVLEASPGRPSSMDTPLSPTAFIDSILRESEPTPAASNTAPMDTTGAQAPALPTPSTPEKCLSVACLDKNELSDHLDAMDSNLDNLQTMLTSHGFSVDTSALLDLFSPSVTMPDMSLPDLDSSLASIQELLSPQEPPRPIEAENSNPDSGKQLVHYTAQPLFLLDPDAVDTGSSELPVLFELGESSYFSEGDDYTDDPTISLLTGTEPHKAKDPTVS

[2] = molecular target: T2, Replicative DNA helicase DnaB (Mycobacterium tuberculosis, UniProt P9WMR3); experiment: DnaB intein splicing inhibitors, dose response, biochemical, cell-free fluorescence (AID 449749); format: functional
T2 sequence (P9WMR3 whole entry): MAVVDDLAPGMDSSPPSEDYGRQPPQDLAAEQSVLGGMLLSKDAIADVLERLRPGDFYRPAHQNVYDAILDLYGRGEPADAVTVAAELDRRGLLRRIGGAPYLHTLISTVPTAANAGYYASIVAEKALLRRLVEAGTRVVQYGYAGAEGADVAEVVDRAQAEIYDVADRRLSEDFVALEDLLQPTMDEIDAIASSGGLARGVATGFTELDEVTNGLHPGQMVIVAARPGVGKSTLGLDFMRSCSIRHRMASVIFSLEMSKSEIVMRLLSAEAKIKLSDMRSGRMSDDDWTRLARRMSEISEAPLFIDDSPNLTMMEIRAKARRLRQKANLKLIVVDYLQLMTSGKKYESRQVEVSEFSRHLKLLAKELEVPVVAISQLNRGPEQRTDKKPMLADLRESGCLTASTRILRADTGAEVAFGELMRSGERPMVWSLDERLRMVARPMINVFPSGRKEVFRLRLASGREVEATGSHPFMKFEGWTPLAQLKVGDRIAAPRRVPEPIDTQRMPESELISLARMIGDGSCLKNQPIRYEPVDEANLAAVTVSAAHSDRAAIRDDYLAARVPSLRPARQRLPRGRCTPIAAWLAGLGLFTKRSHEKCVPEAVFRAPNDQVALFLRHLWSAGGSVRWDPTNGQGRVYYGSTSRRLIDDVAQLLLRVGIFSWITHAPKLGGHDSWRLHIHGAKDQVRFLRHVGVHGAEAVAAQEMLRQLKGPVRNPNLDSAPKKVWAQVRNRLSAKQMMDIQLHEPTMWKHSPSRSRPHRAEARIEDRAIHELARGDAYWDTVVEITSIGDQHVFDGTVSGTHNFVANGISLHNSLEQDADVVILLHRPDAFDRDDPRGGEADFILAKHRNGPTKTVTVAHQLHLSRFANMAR

[3] = A549 cell cytotoxicity, dose response, cytotoxicity control, plate reader, cherry-pick, antagonist series (AID 743412); format: functional, cell-based
[4] = blockers of bursicon-stimulated LGR2 cAMP reporter – cell-based, HEK293, CRE-luciferase reporter, cherry pick, set 2, dose response (AID 743343); format: functional;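 further: transfected cells were stimulated with diluted bursicon conditioned medium after compound addition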
[5] = viability loss in HEK293 cells – cell-based, plate reader, cherry-picked samples, cytotoxicity control, dose response (AID 743446); format: functional
[6] = toxicity toward HepG2 liver cells – cell-based, plate reader, cherry-pick, antagonist series, cytotoxicity control, dose response (AID 743416); format: functional
Protein RecA = molecular target: T3, Protein RecA (Mycobacterium tuberculosis, UniProt P9WHJ3); experiment: Fluorescence Cell-Free Homogeneous Dose Retest to Identify Inhibitors of RecA-Intein Splicing Activity. [Related pubchem assays (depositor defined):AID2097, AID2223, AID489010, AID492950]; format: functional
T3 sequence (P9WHJ3 whole entry): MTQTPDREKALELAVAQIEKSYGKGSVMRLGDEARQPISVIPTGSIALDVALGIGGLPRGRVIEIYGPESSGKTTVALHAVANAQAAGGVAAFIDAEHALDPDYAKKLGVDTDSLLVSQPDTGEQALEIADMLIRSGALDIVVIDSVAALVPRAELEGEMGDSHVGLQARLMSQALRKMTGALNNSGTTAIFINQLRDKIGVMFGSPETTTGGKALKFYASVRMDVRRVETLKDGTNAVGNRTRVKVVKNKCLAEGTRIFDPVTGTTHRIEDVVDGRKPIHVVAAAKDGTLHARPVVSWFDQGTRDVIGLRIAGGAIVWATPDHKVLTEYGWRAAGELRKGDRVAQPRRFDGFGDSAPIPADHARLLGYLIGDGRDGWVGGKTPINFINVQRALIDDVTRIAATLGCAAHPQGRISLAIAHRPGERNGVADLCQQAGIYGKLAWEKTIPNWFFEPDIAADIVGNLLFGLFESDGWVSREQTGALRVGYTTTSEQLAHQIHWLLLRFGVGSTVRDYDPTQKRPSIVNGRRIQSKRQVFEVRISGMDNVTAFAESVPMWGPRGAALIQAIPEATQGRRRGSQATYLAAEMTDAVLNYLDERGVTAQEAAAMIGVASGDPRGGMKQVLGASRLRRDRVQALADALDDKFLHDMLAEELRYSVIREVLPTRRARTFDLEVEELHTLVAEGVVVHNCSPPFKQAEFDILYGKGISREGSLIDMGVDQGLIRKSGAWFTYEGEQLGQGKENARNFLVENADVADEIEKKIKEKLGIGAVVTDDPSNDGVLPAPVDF

[7] = HEK-293T viability loss after treatment – luminescence, T-cell screen hits, cytotoxicity control for TCR NF-kB inhibitor project, dose response (AID 489026); format: functional, cell-based;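 further: cells exposed to compound about 14 hours before the viability readout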
Paired box protein Pax-8 = Paired box protein Pax-8 (Homo sapiens, UniProt Q06710); experiment: PAX8 transcriptional activity inhibition in RMG-I – RMG-I cells, luciferase, cherry-pick, dose response (AID 687027); format: functional, cell-based;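 further: luciferase reporter driven by Pax8 target thyroperoxidase promoter measured by SteadyGlo luminescence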
[8] = molecular target: Heat shock protein HSP 90-alpha (Homo sapiens, UniProt P07900); format: functional, organism-based
Cytochrome P450 3A4 = Cytochrome P450 3A4 (Homo sapiens, UniProt P08684); conditions: Potency;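 further: confirmatory qHTS run detecting inhibitors and substrates of CYP3A4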
Large T antigen = Large T antigen (Simian virus 40, UniProt P03070); format: functional, Betapolyomavirus macacae;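 further: Confirmatory-stage PubChem screen for compounds that inhibit SV40 T antigen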
[9] = Luminescence Cell-Based Dose Retest to Confirm Inhibitors of Cancer Stem Cells. [Related pubchem assays (depositor defined):AID2717, AID2721]; format: functional; conditions: Homo sapiens
[10] = Luminescence Cell-Based Dose Response HTS to Identify Activators of Luciferase Translation or Activity in H4 […] Cells. [Related pubchem assays: 1829 (Project Summary), 1814 (Primary HTS)]; format: functional
H4 = experiment: Luminescence Cell-Based Dose Response HTS to Identify Activators of 5'UTR Stem-Loop Driven Prion Protein mRNA Translation in H4 Neuroglioblastoma Cells. [Related pubchem assays: 1829 (Project Summary), 1814 (Primary HTS)]; format: functional; conditions: Homo sapiens
[11] = molecular target: T1, Heat shock factor protein 1; experiment: decrease of HSF1-responsive luciferase luminescence – cell-based, NIH3T3, dose retest, confirmation (AID 2382); format: functional;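 further: NIH3T3 fibroblasts with HSF1-driven luciferase reporter stressed by proteasome inhibitor MG132; luminescence from HSF1-driven luciferase expression after 8 hours of MG132 stress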
[12] = Luminescence Cell-Based Dose Confirmation HTS to Identify Activators of 5'UTR Stem-Loop Driven Alpha-Synuclein mRNA Translation in H4 Neuroglioblastoma Cells. [Related pubchem assays: 1829 (Project Summary), 1814 (Primary HTS)]; format: functional
[13] = alpha-synuclein stem-loop luciferase translation blockers – H4 neuroglioma cells, luminescence, confirmation (AID 1988); format: functional, cell-based
[14] = luciferase reporter signal suppression in cells – H4 neuroglioma cells, luminescence, dose response (AID 1990); format: functional, cell-based
[15] = Luminescence Cell-Based Dose Response HTS to Identify Inhibitors of 5'UTR Stem-Loop Driven Prion Protein mRNA Translation in H4 Neuroglioblastoma Cells. [Related pubchem assays: 1827 (Project Summary), 1813 (Primary HTS)]; format: functional
[16] = reduction of Shn3 3'UTR-driven luciferase in osteoblasts – cell-based, Clone20 osteoblasts, firefly luciferase, cherry-picked, dose response (AID 624132); format: functional;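 further: firefly luciferase luminescence from reporter carrying the Shn3 3'UTR in osteoblasts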
[17] = viability of uninfected HEp-2 cells – cell-based, HTS, cytotoxicity control for RSV inhibitor project, dose response (AID 2410); format: functional; conditions: human respiratory syncytial virus
[18] = blockade of melanocortin 4 receptor signaling – cell-based, plate reader, cherry pick, counter-screen for LGR2 antagonist project, dose response (AID 743444); format: functional;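 further: transfected HEK 293 cells stimulated with alpha-MSH peptide; potency of inhibitors of the alpha-MSH evoked signal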
[19] = P. falciparum Dd2 growth inhibitors, dose response, SYBR Green, cherry-picked samples (AID 1159567); format: functional, cell-based

Chain of Cytochrome P450 3A4 (P08684 whole entry): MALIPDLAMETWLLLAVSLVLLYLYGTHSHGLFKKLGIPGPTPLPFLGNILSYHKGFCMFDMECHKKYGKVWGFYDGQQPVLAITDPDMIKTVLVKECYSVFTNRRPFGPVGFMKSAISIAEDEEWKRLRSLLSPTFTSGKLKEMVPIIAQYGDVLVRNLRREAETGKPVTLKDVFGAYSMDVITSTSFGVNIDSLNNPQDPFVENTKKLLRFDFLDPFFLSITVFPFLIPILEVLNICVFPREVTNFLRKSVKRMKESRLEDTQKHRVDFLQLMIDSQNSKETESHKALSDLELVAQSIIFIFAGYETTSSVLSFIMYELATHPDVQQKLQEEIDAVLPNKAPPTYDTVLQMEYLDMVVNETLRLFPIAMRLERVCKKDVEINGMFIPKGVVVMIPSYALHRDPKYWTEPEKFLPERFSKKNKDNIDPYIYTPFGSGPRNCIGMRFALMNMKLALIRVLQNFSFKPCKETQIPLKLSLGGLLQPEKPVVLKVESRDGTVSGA
Chain of Large T antigen (P03070 whole entry): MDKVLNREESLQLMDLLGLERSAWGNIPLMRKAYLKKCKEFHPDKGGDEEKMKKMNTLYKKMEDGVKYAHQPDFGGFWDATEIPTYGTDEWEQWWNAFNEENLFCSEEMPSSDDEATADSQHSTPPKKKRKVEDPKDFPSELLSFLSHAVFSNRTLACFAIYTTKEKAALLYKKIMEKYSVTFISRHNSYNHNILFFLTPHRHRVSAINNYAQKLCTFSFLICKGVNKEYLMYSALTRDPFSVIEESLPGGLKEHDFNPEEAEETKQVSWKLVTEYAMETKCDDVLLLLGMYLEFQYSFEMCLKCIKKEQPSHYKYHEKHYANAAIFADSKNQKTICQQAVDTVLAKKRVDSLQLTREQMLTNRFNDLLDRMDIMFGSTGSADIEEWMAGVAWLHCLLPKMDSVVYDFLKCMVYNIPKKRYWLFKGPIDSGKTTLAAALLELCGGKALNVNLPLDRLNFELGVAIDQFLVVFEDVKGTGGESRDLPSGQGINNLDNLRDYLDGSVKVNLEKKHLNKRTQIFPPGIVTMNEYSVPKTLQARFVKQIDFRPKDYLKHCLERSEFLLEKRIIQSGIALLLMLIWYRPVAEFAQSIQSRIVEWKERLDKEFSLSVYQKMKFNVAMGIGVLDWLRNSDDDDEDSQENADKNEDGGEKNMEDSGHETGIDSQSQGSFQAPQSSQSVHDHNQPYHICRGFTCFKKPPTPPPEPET
Chain of Paired box protein Pax-8 (Q06710 whole entry): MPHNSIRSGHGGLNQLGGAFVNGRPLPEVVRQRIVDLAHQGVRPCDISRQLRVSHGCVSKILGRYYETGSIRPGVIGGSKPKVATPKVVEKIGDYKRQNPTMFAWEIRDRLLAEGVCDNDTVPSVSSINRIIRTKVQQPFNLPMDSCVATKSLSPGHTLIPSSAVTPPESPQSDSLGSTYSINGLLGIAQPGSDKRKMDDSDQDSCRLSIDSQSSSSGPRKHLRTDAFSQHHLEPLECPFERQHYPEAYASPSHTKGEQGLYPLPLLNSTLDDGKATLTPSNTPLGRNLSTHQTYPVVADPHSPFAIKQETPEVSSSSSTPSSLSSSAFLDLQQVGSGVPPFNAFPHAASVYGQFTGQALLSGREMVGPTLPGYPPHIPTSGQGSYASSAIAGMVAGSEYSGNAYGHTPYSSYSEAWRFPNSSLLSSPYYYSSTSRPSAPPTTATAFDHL

Compound: COc1ccc(-c2cc(C(F)(F)F)nc(S(=O)(=O)CCCC(=O)Nc3cccc(O)c3)n2)cc1OC
- EC50 [1]: 7.17 µM (active)
- AC50 [2]: 162 µM (active)
- AC50 [3]: 24.2 µM (active)
- AC50 [4]: 11.8 µM (active)
- AC50 [5]: 10.5 µM (active)
- AC50 [6]: 12.7 µM (active)
- EC50 (Protein RecA): 11.3 µM (active)

Compound: Cc1ccc(C(=O)c2cc([N+](=O)[O-])ccc2N2CCCCC2)c(C)c1
- IC50 [7]: > 80 µM (inactive)
- AC50 (Paired box protein Pax-8): 0.929 µM (active)

Compound: Cc1ccc(-c2nc3cccnc3s2)cc1NS(=O)(=O)c1ccc2c(c1)OCCO2
- AC50 [8]: 2.9 µM (active)

Compound: CC1(C)C(=O)C2C[C@]3(O)C4=CC(=O)OC(c5ccoc5)[C@]4(C)CCC3[C@](C)(C2=O)C1CC(=O)O (stereo partly drawn)
- AC50 (Cytochrome P450 3A4): 25.1 µM (inconclusive)

Compound: COc1ccc(N2CCN(C(=O)NC3CC(=O)N(c4ccc(OC)cc4)C3)CC2)cc1 (stereo not drawn)
- IC50 (Large T antigen): 43.3 µM (active)

Compound: CCCCN1Cc2c(nc3cc(-c4ccco4)nn3c2O)C1=O
- IC50 (Large T antigen): 35.6 µM (active)

Compound: Cc1nc(NCc2ccco2)c2c(C)c(C)sc2n1
- AC50 [9]: 3.97 µM (active)
- EC50 [10]: 8.42 µM (active)
- EC50 (H4): > 120 µM (not active)
- EC50 [11]: 1.22 µM (active)
- IC50 [7]: > 80 µM (inactive)
- EC50 [12]: > 120 µM (not active)

Compound: CC(=O)N1CC=CC1(CC(C)C)C(=O)NCc1ccc(C)o1 (stereo not drawn)
- AC50 (Cytochrome P450 3A4): 15.8 µM (inconclusive)

Compound: COC(=O)[C@@]1(C)C=C[C@@H](Cc2ccccc2)N1C(C)=O
- AC50 (Cytochrome P450 3A4): 31.6 µM (inconclusive)

Compound: COC(=O)Nc1ccc(S(=O)(=O)N2CCCc3ccccc32)cc1
- EC50 [13]: 0.37 µM (active)
- AC50 [9]: 0.362 µM (active)
- EC50 [14]: 8.02 µM (active)
- IC50 [7]: > 80 µM (inactive)
- EC50 [15]: 7.32 µM (active)

Compound: c1ccc(-c2ccc3c(c2)NCCN3)cc1
- EC50 [10]: 25 µM (active)
- EC50 (H4): 50.5 µM (active)
- IC50 (Large T antigen): 7.54 µM (active)
- EC50 [12]: 16.3 µM (active)

Compound: CCCCNc1nc(C)nc2c1nc(-c1ccccc1)n2CCCCN(CC)CC
- AC50 (Cytochrome P450 3A4): 12.6 µM (inconclusive)

Compound: COC(=O)c1cn(NC(=O)c2cc([N+](=O)[O-])ccc2F)c(=O)c2ccccc12
- IC50 [7]: > 80 µM (inactive)
- AC50 [16]: 2.85 µM (active)
- CC50 [17]: 3.87 µM (active)

Compound: Cc1cccc(N2CCN(C(=O)c3c(-c4ccccc4Cl)noc3C)CC2)c1C
- IC50 [7]: > 80 µM (inactive)

Compound: NC(c1ccccc1)c1csc(NC(=O)Nc2cccc(Cl)c2)n1 (stereo not drawn)
- AC50 [18]: 36.7 µM (active)
- AC50 [3]: 21.1 µM (active)
- AC50 [4]: 28.8 µM (active)
- AC50 [5]: 50.9 µM (active)
- AC50 [6]: 16.3 µM (active)

Compound: Cc1occc1C(=O)N/N=C/C=C/c1ccc(N(C)C)cc1
- IC50 (Large T antigen): 19.7 µM (active)

Compound: CCCCCCN(C(=O)CCCCCN1C(=O)NC(c2ccc(-c3ccccc3)cc2)C(C(=O)OCc2ccccc2)=C1C)C(C(=O)NCCCC)c1ccc(OCC(=O)O)c(C(=O)O)c1 (stereo not drawn)
- AC50 (Cytochrome P450 3A4): 15.8 µM (inconclusive)

Compound: Cc1ccccc1OCCCN1CCC(C(O)(c2ccccc2)c2ccccc2)CC1
- AC50 [18]: 18.5 µM (active)
- AC50 [3]: 25.7 µM (active)
- AC50 [4]: 19.9 µM (active)
- AC50 [5]: 16.1 µM (active)
- AC50 [6]: 22.6 µM (active)

Compound: CC(C)NC(=O)N1[C@H](CO)[C@@H](c2ccccc2)C12CN(Cc1ccc(Cl)cc1)C2
- AC50 [19]: 4.74 µM (active)

Compound: CO[C@@H]1CN(C)C(=O)c2cc(NC(=O)c3nc4ccccc4s3)ccc2OC[C@@H](C)N(Cc2ccccc2)C[C@H]1C
- AC50 [19]: 3.99 µM (active)

Compound: Nc1ccc(O)cc1 [4-AMINOPHENOL]
- AC50 (Cytochrome P450 3A4): 25.1 µM (inconclusive)
- AC50 [2]: > 380 µM (inactive)
- EC50 (Protein RecA): > 380 µM (inconclusive)

Compound: C=CC(C1=CC(=O)C(OC)=CC1=O)c1ccc(O)cc1 (stereo not drawn) [DALBERGIONE, 4-METHOXY-4'-HYDROXY-]
- AC50 (Cytochrome P450 3A4): 25.1 µM (inconclusive)
